Experimental data from patent US8013156B2 (Exelixis, Inc., priority 2003, dated 2011).

Molecular target: Tie-2 (Homo sapiens, UniProt Q02763)
Test: Tie-2 tyrosine kinase activity assay (luciferase/luciferin ATP consumption with pEY substrate, or 33P-ATP incorporation)
Assay type: biochemical
Conditions: human enzyme Tie-2
Outline: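 Values are IC50 categories (A <50 nM to D ≥10,000 nM), with Ki obtainable by fitting rates to a tight-binding model. Assay formats: 33P-ATP phosphate transfer to adsorbed generic substrate counted by scintillation, or luciferase-detected ATP depletion using pEY.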

Tie-2, sequence (Q02763 23-1124): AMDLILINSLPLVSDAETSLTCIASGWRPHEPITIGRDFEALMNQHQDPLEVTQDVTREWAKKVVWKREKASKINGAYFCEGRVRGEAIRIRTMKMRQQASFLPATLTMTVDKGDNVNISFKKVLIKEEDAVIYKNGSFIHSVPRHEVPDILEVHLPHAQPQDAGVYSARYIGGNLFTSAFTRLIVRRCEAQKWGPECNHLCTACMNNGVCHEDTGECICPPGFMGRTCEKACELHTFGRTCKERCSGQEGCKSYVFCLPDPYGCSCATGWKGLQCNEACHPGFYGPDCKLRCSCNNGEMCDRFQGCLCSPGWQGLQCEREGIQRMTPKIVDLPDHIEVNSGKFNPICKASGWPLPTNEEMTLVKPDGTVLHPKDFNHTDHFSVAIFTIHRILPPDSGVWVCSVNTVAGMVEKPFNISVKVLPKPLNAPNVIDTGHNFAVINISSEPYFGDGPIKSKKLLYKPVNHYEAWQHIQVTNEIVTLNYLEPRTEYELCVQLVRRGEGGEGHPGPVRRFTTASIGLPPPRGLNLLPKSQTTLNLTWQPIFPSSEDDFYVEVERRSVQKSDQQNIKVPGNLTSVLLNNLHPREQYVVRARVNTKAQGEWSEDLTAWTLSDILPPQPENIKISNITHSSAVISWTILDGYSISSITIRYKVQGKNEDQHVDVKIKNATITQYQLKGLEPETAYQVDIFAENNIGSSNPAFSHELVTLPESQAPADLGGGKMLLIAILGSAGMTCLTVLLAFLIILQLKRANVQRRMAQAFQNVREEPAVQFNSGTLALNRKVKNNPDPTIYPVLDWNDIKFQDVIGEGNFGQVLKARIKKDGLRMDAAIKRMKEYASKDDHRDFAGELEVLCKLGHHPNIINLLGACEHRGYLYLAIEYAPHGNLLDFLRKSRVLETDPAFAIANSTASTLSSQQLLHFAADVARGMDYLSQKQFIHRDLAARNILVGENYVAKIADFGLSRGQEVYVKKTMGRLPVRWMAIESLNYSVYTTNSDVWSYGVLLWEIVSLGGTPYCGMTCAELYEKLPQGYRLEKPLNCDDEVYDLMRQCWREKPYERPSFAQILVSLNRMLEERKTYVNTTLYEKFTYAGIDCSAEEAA

`CCc1cc(NC(=O)N2CCN(c3ncccc3OCc3ccnc(N)n3)CC2)cc(C(F)(F)F)c1` [Example 200, 4-(3-{[(2-aminopyrimidin-4-yl)methyl]oxy}pyridin-2-yl)-N-[3-ethyl-5-(trifluoromethyl)phenyl]piperazine-1-carboxamide] and `Nc1nccc(COc2nccnc2N2CCN(C(=O)Nc3cc(F)cc(C(F)(F)F)c3)CC2)n1` [Example 218, 4-(3-{[(2-aminopyrimidin-4-yl)methyl]oxy}pyrazin-2-yl)-N-[3-fluoro-5-(trifluoromethyl)phenyl]piperazine-1-carboxamide] cannot be ordered by IC50: less than 50 nM for the first, less than 50 nM for the second.

`CCc1cccc(NC(=O)N2CCN(c3nccnc3OCc3ccnc(N)n3)CC2)c1` [Example 201, 4-(3-{[(2-aminopyrimidin-4-yl)methyl]oxy}pyrazin-2-yl)-N-(3-ethylphenyl)piperazine-1-carboxamide] and `CCc1cc(Cl)cc(NC(=O)N2CCN(c3nccnc3OCc3ccnc(N)n3)CC2)c1` [Example 202, 4-(3-{[(2-aminopyrimidin-4-yl)methyl]oxy}pyrazin-2-yl)-N-(3-chloro-5-ethylphenyl)piperazine-1-carboxamide] cannot be ordered by IC50: less than 50 nM for the first, less than 50 nM for the second.

First: CCc1ccc(F)c(NC(=O)N2CCN(c3nccnc3OCc3ccnc(N)n3)CC2)c1 [Example 203, 4-(3-{[(2-aminopyrimidin-4-yl)methyl]oxy}pyrazin-2-yl)-N-(5-ethyl-2-fluorophenyl)piperazine-1-carboxamide]
Second: CCc1ccc(F)c(NC(=O)N2CCN(c3nsnc3OCc3ccnc(N)n3)CC2)c1 [Example 222, 4-(4-{[(2-aminopyrimidin-4-yl)methyl]oxy}-1,2,5-thiadiazol-3-yl)-N-(5-ethyl-2-fluorophenyl)piperazine-1-carboxamide]
The IC50 of the first is lower: less than 50 nM for the first, 50 to 1000 nM for the second. The first is the more potent here.

`CNC(=O)N1CCN(c2ncccc2OCc2ccnc(N)n2)CC1` [Example 204, 4-(3-{[(2-aminopyrimidin-4-yl)methyl]oxy}pyridin-2-yl)-N-methylpiperazine-1-carboxamide] and `CCNC(=O)N1CCN(c2ncccc2OCc2ccnc(N)n2)CC1` [Example 205, 4-(3-{[(2-aminopyrimidin-4-yl)methyl]oxy}pyridin-2-yl)-N-ethylpiperazine-1-carboxamide] cannot be ordered by IC50: no less than 10000 nM for the first, no less than 10000 nM for the second.

`Nc1nccc(COc2cccnc2N2CCN(C(=O)NC3CCCCC3)CC2)n1` [Example 206, 4-(3-{[(2-aminopyrimidin-4-yl)methyl]oxy}pyridin-2-yl)-N-cyclohexylpiperazine-1-carboxamide] and `CC(=O)N1CCN(c2ncccc2OCc2ccnc(N)n2)CC1` [Example 207, 4-({[2-(4-acetylpiperazin-1-yl)pyridin-3-yl]oxy}methyl)pyrimidin-2-amine] cannot be ordered by IC50: 1000 to 10000 nM for the first, no less than 10000 nM for the second.

`CCC(=O)N1CCN(c2ncccc2OCc2ccnc(N)n2)CC1` [Example 208, 4-({[2-(4-propanoylpiperazin-1-yl)pyridin-3-yl]oxy}methyl)pyrimidin-2-amine] and `CC(C)CNC(=O)N1CCN(c2ncccc2OCc2ccnc(N)n2)CC1` [Example 220, 4-(3-{[(2-aminopyrimidin-4-yl)methyl]oxy}pyridin-2-yl)-N-(2-methylpropyl)piperazine-1-carboxamide] cannot be ordered by IC50: no less than 10000 nM for the first, no less than 10000 nM for the second.

`CN1CCN(CC(=O)Nc2cc(COc3cccnc3N3CCN(C(=O)Nc4cccc(C5CC5)c4)CC3)ccn2)CC1` [Example 209, N-(3-cyclopropylphenyl)-4-(3-{[(2-{[(4-methylpiperazin-1-yl)acetyl]amino}pyridin-4-yl)methyl]oxy}pyridin-2-yl)piperazine-1-carboxamide] and `CN1CCN(CC(=O)Nc2cc(COc3cccnc3N3CCN(C(=O)Nc4cccc(C(F)(F)F)c4)CC3)ccn2)CC1` [Example 214, 4-(3-{[(2-{[(4-methylpiperazin-1-yl)acetyl]amino}pyridin-4-yl)methyl]oxy}pyridin-2-yl)-N-[3-(trifluoromethyl)phenyl]piperazine-1-carboxamide] cannot be ordered by IC50: less than 50 nM for the first, less than 50 nM for the second.

Compared with `Nc1nccc(COc2cccnc2N2CCN(C(=O)Nc3cccc(C4CC4)c3)CC2)n1` [Example 210, 4-(3-{[(2-aminopyrimidin-4-yl)methyl]oxy}pyridin-2-yl)-N-(3-cyclopropylphenyl)piperazine-1-carboxamide], `Nc1nccc(COc2cccnc2N2CCN(C(=O)N3CCCc4ccccc43)CC2)n1` [Example 219, 4-[({2-[4-(3,4-dihydroquinolin-1(2H)-ylcarbonyl)piperazin-1-yl]pyridin-3-yl}oxy)methyl]pyrimidin-2-amine] is higher in IC50: less than 50 nM for the first, no less than 10000 nM for the second.

First: CN1CCN(CC(=O)Nc2cc(COc3cccnc3N3CCN(C(=O)Nc4cc(C(F)(F)F)ccc4F)CC3)ccn2)CC1 [Example 211, N-[2-fluoro-5-(trifluoromethyl)phenyl]-4-(3-{[(2-{[(4-methylpiperazin-1-yl)acetyl]amino}pyridin-4-yl)methyl]oxy}pyridin-2-yl)piperazine-1-carboxamide]
Second: CN1CCN(CC(=O)Nc2cc(COc3cccnc3N3CCN(C(=O)Nc4cc(F)cc(C(F)(F)F)c4)CC3)ccn2)CC1 [Example 212, N-[3-fluoro-5-(trifluoromethyl)phenyl]-4-(3-{[(2-{[(4-methylpiperazin-1-yl)acetyl]amino}pyridin-4-yl)methyl]oxy}pyridin-2-yl)piperazine-1-carboxamide]
The IC50 of the first is higher: 50 to 1000 nM for the first, less than 50 nM for the second.

`CN1CCN(CC(=O)Nc2cc(COc3cccnc3N3CCN(C(=O)Nc4cc(Cl)cc(Cl)c4)CC3)ccn2)CC1` [Example 213, N-(3,5-dichlorophenyl)-4-(3-{[(2-{[(4-methylpiperazin-1-yl)acetyl]amino}pyridin-4-yl)methyl]oxy}pyridin-2-yl)piperazine-1-carboxamide] and `Nc1nccc(COc2nccnc2N2CCN(C(=O)Nc3cc(Cl)cc(Cl)c3)CC2)n1` [Example 217, 4-(3-{[(2-aminopyrimidin-4-yl)methyl]oxy}pyrazin-2-yl)-N-(3,5-dichlorophenyl)piperazine-1-carboxamide] cannot be ordered by IC50: less than 50 nM for the first, less than 50 nM for the second.

`CCc1cc(CC)cc(NC(=O)N2CCN(c3nccnc3OCc3ccnc(N)n3)CC2)c1` [Example 215, 4-(3-{[(2-aminopyrimidin-4-yl)methyl]oxy}pyrazin-2-yl)-N-(3,5-diethylphenyl)piperazine-1-carboxamide] and `CCc1cc(Cl)cc(NC(=O)N2CCN(c3nsnc3OCc3ccnc(N)n3)CC2)c1` [Example 221, 4-(4-{[(2-aminopyrimidin-4-yl)methyl]oxy}-1,2,5-thiadiazol-3-yl)-N-(3-chloro-5-ethylphenyl)piperazine-1-carboxamide] cannot be ordered by IC50: less than 50 nM for the first, less than 50 nM for the second.

First: CC(Oc1cccnc1N1CCN(C(=O)Nc2cc(C(F)(F)F)cc(C(F)(F)F)c2)CC1)c1ccnc(N)n1 (stereo not shown) [Example 216, 4-(3-{[1-(2-aminopyrimidin-4-yl)ethyl]oxy}pyridin-2-yl)-N-[3,5-bis(trifluoromethyl)phenyl]piperazine-1-carboxamide]
Second: Nc1nccc(COc2nccnc2N2CCN(C(=O)Nc3ccccc3)CC2)n1 [Example 224, 4-(3-{[(2-aminopyrimidin-4-yl)methyl]oxy}pyrazin-2-yl)-N-phenylpiperazine-1-carboxamide]
The IC50 of the first is lower: less than 50 nM for the first, 50 to 1000 nM for the second. The first is the more potent here.

`Nc1nccc(COc2nsnc2N2CCN(C(=O)Nc3cc(Cl)cc(Cl)c3)CC2)n1` [Example 223, 4-(4-{[(2-aminopyrimidin-4-yl)methyl]oxy}-1,2,5-thiadiazol-3-yl)-N-(3,5-dichlorophenyl)piperazine-1-carboxamide] showed an IC50 of 50 to 1000 nM.
